Data taken from patent US9547001B2, “Antibody specific for trans-resveratrol and use thereof” (IP Science Limited, priority 2011, dated 2017).
Several values for one entry are separate records, joined by “and”; a condition that tells them apart may be missing. Identical values can stand only once.

Columns and labels:
Assay type in all cases: in vivo
[1] = HPLC-MS measurement of tRV in human serum after 100 mg tRV capsule (nutraceutical study)
Description: (§1) The group of 5 volunteers comprised of 2 female and 3 male clinically healthy Caucasian persons, age between 23 and 35 years.
(§2) They were asked, before commencing this experiment, to go for 3-4 days “wash-out”, when consumption of any grape, wine, peanut, chocolate and other products which might contain them.
(§3) In the morning of the experiment, one hour after light breakfast, volunteers were given 1 gelatine capsule containing 100 mg of tRV.
(§4) Blood samples were taken from their median cubital or cephalic veins at the baseline point. Then, after administration of tRV, their blood was taken again at the following time points: 30 minutes, 1 hour, 2, 3, 4, 6 and 8 hours.
(§5) After taking blood its serum was separated, aliquoted and stored at −80° C. for further testing.

[2] = anti-tRV ELISA measurement of tRV in human serum after 1 mg tRV in 200 ml red wine (wine study); details: sum of 1 h + 2 h + 4 h + 6 h + 8 h, one value per volunteer
Description: (§6) 2 ml of ethyl acetate was added to 0.5 ml of serum sample, then mixed on a vortex for 3 minutes, followed by centrifugation for 2 minutes at 500 r/min. The upper layer of ethyl acetate was transferred into a new tube. To the remaining lower water fraction a second portion of 2 ml ethyl acetate was added and the extraction procedure was repeated. The new ethyl acetate fraction was added to the old one, giving a total volume of 4 ml, which was then dried by air flow at 60° C., using a Reacti-Therm™III, Thermo scientific, USA.[…]. 40 μl of ethanol was then added and mixed on vortex, then 160 μl of PBS with 0.5% BSA was added and mixed again. This final solution was used for the analysis described below.
RV-BSA was pre-absorbed on microplate wells in 0.1M carbonate buffer, pH=9.5 (at a concentration of 5 μg/ml) overnight at 4° C. […]
(§7) The plate was washed out four times with PBST, and then a chromogeninc substrate was added, tetramethylbenzidine+H2O2. After stopping the reaction with 1M H2SO4, optic density was read at λ450 nm, Multiscan EX (<<Thermo>>, USA).
Inhibition by free tRV of the binding of serum antibodies with immobolised RV-BSA (Kin) was calculated according to the following formula: Kin=100−(A450D/A450C−)×100, where: • A450D is the optic density in samples with free tRV (testing serum or samples from the calibrating curve), • A450 C is the an optic density without free tRV. […]

[3] = HPLC-MS measurement of tRV in human serum after 1 mg tRV in 200 ml red wine (wine study); details: sum of 1 h + 2 h + 4 h + 6 h + 8 h, one value per volunteer
Description: The same volunteers also participated in a wine study. The same “wash out” period was used, and the same timing of the experiment was applied. Instead of taking a capsule of tRV each of the volunteers consumed 200 ml of red wine, which was selected on a basis that it would contain 1 mg of tRV in this volume. The rest of the Protocol employed was the same as above.
After taking blood, serum was separated, aliquoted and stored at −80° C. for further testing.

[4] = anti-tRV ELISA measurement of tRV in human serum after 100 mg tRV capsule (nutraceutical study)
Description: as §6
RV-BSA was pre-absorbed on microplate wells in 0.1M carbonate buffer, pH=9.5 (at a concentration of 5 μg/ml) overnight at 4° C. After washing four times the PBST plate was blocked with PBS contacting 1% of Top Block (<<Yuro>>, Switzerland).
For the calibrating curve different concentrations of tRV were added into the wells. The stock solution used was 1 mg/ml of tRV diluted in PBST with 0.5% BSA and 20% ethanol. 50 μl of each serum extract to be tested were added to parallel wells. After which 50 μl of the conjugate of HRP with monoclonal anti-tRV antibodies was added to all the wells. The content of the wells was mixed using a shaker for 1 minute and then the plate was then incubated for 1 hour at +37° C.
as §7
Inhibition by free tRV of the binding of serum antibodies with immobolised RV-BSA (Kin) was calculated according to the following formula: Kin=100−(A450D/A450C−)×100, where: • A450D is the optic density in samples with free tRV (testing serum or samples from the calibrating curve), • A450 C is the an optic density without free tRV.
as §1, §2, §3, §4, §5

[5] = 1 h after 100 mg tRV, volunteers 1 and 2
[6] = 2 h after 100 mg tRV, volunteers 1 and 2
[7] = human serum, 100 mg tRV dietary supplement, sum of 30 min + 1 h + 2 h + 3 h + 4 h + 6 h + 8 h, one value per volunteer
[8] = human, serum, oral, 100 mg, 1 h after 100 mg tRV, volunteers 1 and 2
[9] = human, serum, oral, 100 mg, 2 h after 100 mg tRV, volunteers 1 and 2

## Oc1ccc(/C=C/c2cc(O)cc(O)c2)cc1 [tRV, trans-Resveratrol]
[1]; [5]
  Concentration of tRV in serum, HPLC-MS: 97 ng/mL
[1]; [6]
  Concentration of tRV in serum, HPLC-MS: 21 ng/mL
[1]; [7]
  Concentration of tRV in serum as a sum of 7 separate measurements, HPLC-MS: 98 ng/mL and 139 ng/mL and 79 ng/mL and 37 ng/mL and 107 ng/mL
[1]; [8]
  concentration at 1 h: 65 ng/mL
[1]; [9]
  concentration at 2 h: 12 ng/mL
[2]
  Concentration of tRV in serum as a sum of 5 separate measurements, ELISA: 310 ng/mL and 850 ng/mL and 120 ng/mL and 460 ng/mL and 380 ng/mL
[3]
  Concentration of tRV in serum as a sum of 5 separate measurements, HPLC-MS: 6 ng/ml and 572 ng/ml and 0 ng/ml (3×)
[4]; 30 min after 100 mg tRV, volunteers 1 and 2
  Concentration of tRV in serum, ELISA: 90 ng/mL
[4]; [5]
  Concentration of tRV in serum, ELISA: 490 ng/mL
[4]; [6]
  Concentration of tRV in serum, ELISA: 255 ng/mL
[4]; 3 h after 100 mg tRV, volunteers 1 and 2
  Concentration of tRV in serum, ELISA: 10 ng/mL
[4]; 4 h after 100 mg tRV, volunteers 1 and 2
  Concentration of tRV in serum, ELISA: 195 ng/mL
[4]; 6 h after 100 mg tRV, volunteers 1 and 2
  Concentration of tRV in serum, ELISA: 620 ng/mL
[4]; [7]
  Concentration of tRV in serum as a sum of 7 separate measurements, ELISA: 1600 ng/mL and 1900 ng/mL and 1070 ng/mL and 795 ng/mL and 1412 ng/mL
[4]; human, serum, oral, 100 mg, 30 min after 100 mg tRV, volunteers 1 and 2
  concentration at 30 min: 140 ng/mL
[4]; [8]
  concentration at 1 h: 650 ng/mL
[4]; [9]
  concentration at 2 h: 210 ng/mL
[4]; human, serum, oral, 100 mg, 3 h after 100 mg tRV, volunteers 1 and 2
  concentration at 3 h: 20 ng/mL
[4]; human, serum, oral, 100 mg, 4 h after 100 mg tRV, volunteers 1 and 2
  concentration at 4 h: 135 ng/mL
[4]; human, serum, oral, 100 mg, 6 h after 100 mg tRV, volunteers 1 and 2
  concentration at 6 h: 420 ng/mL
